Read-outs that look alike come from different tables or passages of the source.
Assays:
mouse fibroblasts = conditions: with protoplasmic vacuolation; cited from earlier work
BHK-21 cells [1] = experiment: Effects of WHS on BHK-21 cells in the presence of steroids; type: cell-based, hamster; conditions: steroid 50 μg/ml alone
BHK-21 cells [2] = experiment: Inhibitory effects of steroids on BHK-21 cells; type: cell-based, hamster; conditions: for activity at 0.5 µg/mL / activity at 1 µg/mL / activity at 5 µg/mL / activity at 25 µg/mL / activity at 50 µg/mL: Mesocricetus auratus, read-out: % of control cell numbers
[3] = system: BHK-21 cells (hamster renal fibroblasts); experiment: Growth of BHK-21 cells, time course; type: cell-based
epidermal cell = conditions: cited from earlier work

**Q.** Which “growth of incubated mouse fibroblasts” value (mouse fibroblasts) does the source give for CC1(C)O[C@@H]2C[C@H]3[C@@H]4C[C@H](F)C5=CC(=O)C=C[C@]5(C)[C@@]4(F)[C@@H](O)C[C@]3(C)[C@]2(C(=O)CO)O1 [Fluocinolone acetanide, fluocinolone acetonide] here?
**A.** inhibited growth

**Q.** What about the cell numbers (BHK-21 cells [1]; 3rd day) of the same molecule?
**A.** 0.97 × 10^5 cells/dish

**Q.** What about the cell numbers (BHK-21 cells [1]; 5th day) of the same molecule?
**A.** 1.22 × 10^5 cells/dish

**Q.** And the cell numbers (BHK-21 cells [2]; 0.5 μg/ml, 1 day)?
**A.** 0.15 × 10^5 cells/dish

**Q.** And the cell numbers (BHK-21 cells [2]; 0.5 μg/ml, 3 days)?
**A.** 1.16 × 10^5 cells/dish

**Q.** And the cell numbers (BHK-21 cells [2]; 0.5 μg/ml, 5 days)?
**A.** 1.66 × 10^5 cells/dish

**Q.** What about the cell numbers (BHK-21 cells [2]; 1.0 μg/ml, 1 day) of the same molecule?
**A.** 0.15 × 10^5 cells/dish

**Q.** What about the cell numbers (BHK-21 cells [2]; 1.0 μg/ml, 3 days) of the same molecule?
**A.** 1.04 × 10^5 cells/dish

**Q.** What about the cell numbers (BHK-21 cells [2]; 1.0 μg/ml, 5 days) of the same molecule?
**A.** 1.72 × 10^5 cells/dish

**Q.** What about the cell numbers (BHK-21 cells [2]; 5.0 μg/ml, 1 day) of the same molecule?
**A.** 0.15 × 10^5 cells/dish

**Q.** What about the cell numbers (BHK-21 cells [2]; 5.0 μg/ml, 3 days) of the same molecule?
**A.** 1.02 × 10^5 cells/dish

**Q.** What about the cell numbers (BHK-21 cells [2]; 5.0 μg/ml, 5 days) of the same molecule?
**A.** 1.66 × 10^5 cells/dish

**Q.** And the cell numbers (BHK-21 cells [2]; 25.0 μg/ml, 1 day)?
**A.** 0.15 × 10^5 cells/dish

**Q.** And the cell numbers (BHK-21 cells [2]; 25.0 μg/ml, 3 days)?
**A.** 0.88 × 10^5 cells/dish

**Q.** What about the cell numbers (BHK-21 cells [2]; 25.0 μg/ml, 5 days) of the same molecule?
**A.** 1.39 × 10^5 cells/dish

**Q.** What about the cell numbers (BHK-21 cells [2]; 50.0 μg/ml, 1 day) of the same molecule?
**A.** 0.12 × 10^5 cells/dish

**Q.** What about the cell numbers (BHK-21 cells [2]; 50.0 μg/ml, 3 days) of the same molecule?
**A.** 0.71 × 10^5 cells/dish

**Q.** And the cell numbers (BHK-21 cells [2]; 50.0 μg/ml, 5 days)?
**A.** 1.12 × 10^5 cells/dish

**Q.** What about the activity at 0.5 µg/mL (BHK-21 cells [2]; BHK-21, 24 h, 0.5 μg/ml, 1 day) of the same molecule?
**A.** 107%

**Q.** What about the activity at 1 µg/mL (BHK-21 cells [2]; BHK-21, 24 h, 1.0 μg/ml, 1 day) of the same molecule?
**A.** 107%

**Q.** What about the activity at 5 µg/mL (BHK-21 cells [2]; BHK-21, 24 h, 5.0 μg/ml, 1 day) of the same molecule?
**A.** 107%

**Q.** And the activity at 25 µg/mL (BHK-21 cells [2]; BHK-21, 24 h, 25.0 μg/ml, 1 day)?
**A.** 107%

**Q.** And the activity at 50 µg/mL (BHK-21 cells [2]; BHK-21, 24 h, 50.0 μg/ml, 1 day)?
**A.** 85.7%

**Q.** What about the activity at 0.5 µg/mL (BHK-21 cells [2]; BHK-21, 72 h, 0.5 μg/ml, 3 days) of the same molecule?
**A.** 86.6%

**Q.** And the activity at 1 µg/mL (BHK-21 cells [2]; BHK-21, 72 h, 1.0 μg/ml, 3 days)?
**A.** 77.6%

**Q.** What about the activity at 5 µg/mL (BHK-21 cells [2]; BHK-21, 72 h, 5.0 μg/ml, 3 days) of the same molecule?
**A.** 76.1%

**Q.** What about the activity at 25 µg/mL (BHK-21 cells [2]; BHK-21, 72 h, 25.0 μg/ml, 3 days) of the same molecule?
**A.** 65.7%

**Q.** And the activity at 50 µg/mL (BHK-21 cells [2]; BHK-21, 72 h, 50.0 μg/ml, 3 days)?
**A.** 53%

**Q.** What about the activity at 0.5 µg/mL (BHK-21 cells [2]; BHK-21, 120 h, 0.5 μg/ml, 5 days) of the same molecule?
**A.** 75.8%

**Q.** What about the activity at 1 µg/mL (BHK-21 cells [2]; BHK-21, 120 h, 1.0 μg/ml, 5 days) of the same molecule?
**A.** 78.5%

**Q.** What about the activity at 5 µg/mL (BHK-21 cells [2]; BHK-21, 120 h, 5.0 μg/ml, 5 days) of the same molecule?
**A.** 75.8%

**Q.** And the activity at 25 µg/mL (BHK-21 cells [2]; BHK-21, 120 h, 25.0 μg/ml, 5 days)?
**A.** 63.5%

**Q.** What about the activity at 50 µg/mL (BHK-21 cells [2]; BHK-21, 120 h, 50.0 μg/ml, 5 days) of the same molecule?
**A.** 51.1%

**Q.** With EGF: epidermal growth factor as the molecule, how does the “saturation density of the cells” value [3] read?
**A.** increased the saturation density of the cells

**Q.** For PDGF, which “saturation density of the cells” value ([3]; Eagle's MEM containing 10% calf serum, 37° C.) is on record?
**A.** increased the saturation density of the cells

**Q.** Which “stimulating activity on epidermal cell growth” value (epidermal cell) does the source give for cholera toxin here?
**A.** marked stimulating activity
